ChEMBL document CHEMBL1153779, “Tyrosinase-inhibitory constituents from the twigs of Cinnamomum cassia” (J Nat Prod, 2009)

target: T1, Tyrosinase (Agaricus bisporus, UniProt O42713)
T1 sequence (O42713 whole entry): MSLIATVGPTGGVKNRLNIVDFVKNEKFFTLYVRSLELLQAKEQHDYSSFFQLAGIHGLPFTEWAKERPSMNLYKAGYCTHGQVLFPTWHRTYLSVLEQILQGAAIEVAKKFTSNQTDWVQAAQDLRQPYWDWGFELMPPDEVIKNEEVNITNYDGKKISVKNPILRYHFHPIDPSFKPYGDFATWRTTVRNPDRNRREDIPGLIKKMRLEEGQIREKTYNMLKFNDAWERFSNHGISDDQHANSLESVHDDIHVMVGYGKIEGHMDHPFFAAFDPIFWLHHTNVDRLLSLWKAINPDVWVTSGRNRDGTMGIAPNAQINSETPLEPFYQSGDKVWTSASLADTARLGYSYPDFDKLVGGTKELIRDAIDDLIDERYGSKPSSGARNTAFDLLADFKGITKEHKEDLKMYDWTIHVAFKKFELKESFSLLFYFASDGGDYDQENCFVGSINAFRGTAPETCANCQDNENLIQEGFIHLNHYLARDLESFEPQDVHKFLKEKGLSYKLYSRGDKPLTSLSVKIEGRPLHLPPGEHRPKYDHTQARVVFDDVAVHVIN
Description: Inhibition of mushroom tyrosinase after 10 mins by spectrophotometry

`COc1cc(/C=C/C=O)ccc1O` [CONIFERYL ALDEHYDE] and `COc1c(O)cccc1/C=C/C=O` are within 1.5-fold of each other in IC50: 240 µM for the first, 260 µM for the second.

`O=C(CCc1ccccc1O)O[C@@H]1O[C@H](CO)[C@@H](O)[C@H](O)[C@H]1O` [DIHYDROCINNACASSIDE] and `O=C(O)CCc1ccccc1O[C@@H]1O[C@H](CO)[C@@H](O)[C@H](O)[C@H]1O` [DIHYDROMELILOTOSIDE] are within 1.5-fold of each other in IC50: 670 µM for the first, 570 µM for the second.

`O=C/C=C/c1ccccc1O` [2-HYDROXYCINNAMALDEHYDE] and `COc1ccccc1/C=C/C=O` are within 1.5-fold of each other in IC50: 470 µM for the first, 420 µM for the second.

`O=C(O)/C=C/c1ccccc1O` [O-COUMARIC ACID] and `O=C/C=C/c1ccccc1` are within 1.5-fold of each other in IC50: 670 µM for the first, 520 µM for the second.

First: Oc1ccc(O)cc1 [HYDROQUINONE]
Second: OC/C=C/c1ccccc1 [CINNAMIC ALCOHOL]
The IC50 of the first is lower: 4210 µM for the first, over 10000 µM for the second.

Compared with `O[C@@H]1[C@@H](O)[C@@H](OC/C=C/c2ccccc2)O[C@H](CO[C@@H]2OC[C@H](O)[C@H](O)[C@H]2O)[C@H]1O` [ROSAVIN], `OC[C@H]1O[C@@H](OCCc2ccccc2)[C@H](O)[C@@H](O)[C@@H]1O[C@@H]1OC[C@](O)(CO)[C@H]1O` is lower in IC50: over 10000 µM for the first, 710 µM for the second. The second is the more potent here.

`COC(=O)CCc1ccccc1O[C@@H]1O[C@H](CO)[C@@H](O)[C@H](O)[C@H]1O` [METHYL DIHYDROMELILOTOSIDE] and `C[C@@H]1O[C@@H](OC[C@H]2O[C@@H](Oc3ccccc3/C=C/CO)[C@H](O[C@@H]3[C@@H](OCc4ccccc4)O[C@@H](CO[C@@H]4OC[C@](O)(CO)[C@H]4O)[C@H](O)[C@H]3O)[C@@H](O)[C@@H]2O)[C@H](O)[C@H](O)[C@H]1O` [CINNACASSINOL] are within 1.5-fold of each other in IC50: 630 µM for the first, 940 µM for the second.
